In patent publication US20090048293A1 (priority 2005, published 2009):
Several values for one entry are separate records, joined by “and”; a condition that tells them apart may be missing. Identical values can stand only once. Entries after “also recorded” stand apart in the source; their conditions may differ. Like-named read-outs stand apart in the source and are kept apart here. Where a SMILES comes first, the peptide text is derived from it. [ ]: non-standard residue; d: D form. The star is where a group is joined. Sta = CC(C)C[C@H](N)[C@@H](O)CC(=O)O; Isovaleryl = CC(C)CC(=O)*

Legend:
[1] = test system: InhA; type: biochemical, Bacillus anthracis
[2] = test system: syndecan-1 shedding of NMuMG cells; type: cell-based, murine
[3] = test system: Npr599; type: biochemical, Bacillus anthracis
[4] = test system: syndecan-1 ectodomain shedding from NMuMG cells; type: cell-based, murine
[5] = test system: TLR2; type: cell-based

c1cnc2c(c1)ccc1cccnc12 [1,10-phenanthroline, 1, 10-phenanthroline]
Effect on InhA caseinolytic activity (in words) [1]: rapidly inhibited | Remaining protease activity (%) InhA [1]: 0% | Effect on InhA caseinolytic activity (in words) ([1]; 1 mM): completely abolishes | Effect on AnlO-induced syndecan-1 shedding (in words) [2]: reduce | Effect on LeTx-induced syndecan-1 shedding (in words) [2]: reduce | Effect on Npr599 caseinolytic activity (in words) [3]: rapidly inhibited | Effect on Npr599 caseinolytic activity (in words) ([3]; 1 mM): completely abolishes | Effect on Npr599-activated syndecan-1 shedding (in words) [4]: abrogate | Effect on TLR2 signaling stimulated by B. anthracis culture supernatant (in words) [5]: abrogated

[Ca+2] [Ca2+]
Effect on InhA caseinolytic activity (in words) [1]: do not | Remaining activity (%) InhA [1]: 91 (5.2) % and 94 (3.5) % | Effect on Npr599 caseinolytic activity (in words) [3]: do not | Remaining activity (%) Npr599 [3]: 86 (1.5) % and 97 (1.4) %

[Cu+2] [Cu2+]
Effect on InhA caseinolytic activity (in words) [1]: inhibit | Remaining activity (%) InhA [1]: 0 (0.0) % | Effect on Npr599 caseinolytic activity (in words) [3]: inhibit | Remaining activity (%) Npr599 [3]: 1 (1.0) % and 0 (0.0) %

O[C@@H](CS)[C@@H](O)CS [DTT]
Effect on InhA caseinolytic activity (in words) [1]: inhibits | Effect on Npr599 caseinolytic activity (in words) [3]: inhibits

CC(C)C[C@H](NC(=O)[C@H]1O[C@@H]1C(=O)O)C(=O)NCCCCN=C(N)N [E-64]
Remaining protease activity (%) InhA [1]: 59.1% and 78.4% and 83.5% | Remaining protease activity (%) Npr599 [3]: 74.1% and 76.1% and 79.5%

O=C(O)CN(CCN(CC(=O)O)CC(=O)O)CC(=O)O [EDTA, ethylenediaminetetraacetic acid]
Effect on InhA caseinolytic activity (in words) [1]: rapidly inhibited | Remaining protease activity (%) InhA [1]: 28.2% and 28.7% and 33.1% | Effect on Npr599 caseinolytic activity (in words) [3]: rapidly inhibited | Remaining protease activity (%) Npr599 [3]: 6.5% and 9.5% and 10.5%

[Fe+2] [Fe2+]
Effect on InhA caseinolytic activity (in words) [1]: inhibit | Effect on Npr599 caseinolytic activity (in words) [3]: inhibit

CNC(=O)[C@H](Cc1c[nH]c2ccccc12)NC(=O)[C@@H](CC(=O)NO)CC(C)C [Galardin, Galardin (Ilomastat)]
Effect on InhA caseinolytic activity (in words) [1]: less sensitive; also recorded: not InhA activity significantly | Remaining protease activity (%) InhA [1]: 70.5% and 104% and 103.3% | Effect on AnlO-induced syndecan-1 shedding (in words) [2]: reduce | Effect on Npr599 caseinolytic activity (in words) [3]: inhibits Npr599 activity strongly | Effect on Npr599-activated syndecan-1 shedding (in words) [4]: abrogate

O=C1c2ccccc2-c2n[nH]c3cccc1c23 [JNK inhibitor, JNK inhibitor II]
Effect on protease-enhanced syndecan-1 release (in words) [4]: strongly inhibits | Effect on protease-enhanced syndecan-1 shedding (in words) [4]: some stimulatory effect

Cl.N[C@@H](CS)C(=O)O [L-Cysteine.HCl]
Effect on InhA caseinolytic activity (in words) ([1]; 1 mM): no substantial inhibiting activity | Effect on Npr599 caseinolytic activity (in words) ([3]; 1 mM): no substantial inhibiting activity

CC(=O)N[C@@H](CC(C)C)C(=O)N[C@@H](CC(C)C)C(=O)N[C@H](C=O)CCCNC(=N)N [Leupeptin, leupeptin]
Remaining protease activity (%) InhA [1]: 75.1% and 105.6% and 111.4% | Remaining protease activity (%) Npr599 [3]: 95.4% and 106.2%

[Mg+2] [Mg2+]
Effect on InhA caseinolytic activity (in words) [1]: do not | Remaining activity (%) InhA [1]: 76 (6.1) % and 97 (1.7) % | Effect on Npr599 caseinolytic activity (in words) [3]: do not | Remaining activity (%) Npr599 [3]: 83 (2.8) % and 97 (1.4) %

[Mn+2] [Mn2+]
Effect on InhA caseinolytic activity (in words) [1]: do not | Remaining activity (%) InhA [1]: 103 (2.5) % and 91 (5.1) % | Effect on Npr599 caseinolytic activity (in words) [3]: do not | Remaining activity (%) Npr599 [3]: 79 (0.2) % and 96 (4.3) %

[Ni+2] [Ni2+]
Remaining activity (%) InhA [1]: 45 (3.4) % and 69 (1.3) % | Remaining activity (%) Npr599 [3]: 46 (1.4) % and 77 (1.4) %

COc1cccc(-c2cc(=O)c3ccccc3o2)c1N [PD98059]
Effect on protease-enhanced syndecan-1 release (in words) [4]: strongly inhibits | Effect on protease-enhanced syndecan-1 shedding (in words) [4]: some stimulatory effect

O=S(=O)(F)Cc1ccccc1 [PMSF, phenylmethanesulfonyl fluoride]
Remaining protease activity (%) InhA [1]: 111.1% and 109.8% and 94.7% | Remaining protease activity (%) Npr599 [3]: 88.2% and 100.9% and 87.2%

CC(C)CC(=O)N[C@H](C(=O)N[C@H](C(=O)N[C@@H](CC(C)C)[C@@H](O)CC(=O)N[C@@H](C)C(=O)N[C@@H](CC(C)C)[C@@H](O)CC(=O)O)C(C)C)C(C)C [Pepstatin A, pepstatin A] (Isovaleryl-VV[Sta]A[Sta]-OH)
Remaining protease activity (%) Npr599 [3]: 67.6% and 75.3% and 77.9%

CC(C)C[C@H](NP(=O)(O)O[C@@H]1O[C@@H](C)[C@H](O)[C@@H](O)[C@H]1O)C(=O)N[C@@H](Cc1c[nH]c2ccccc12)C(=O)O [Phosphoramidon, phosphoramidon]
Effect on InhA caseinolytic activity (in words) [1]: less sensitive | Remaining protease activity (%) InhA [1]: 45.3% and 80.3% and 87.1% | Effect on Npr599-activated syndecan-1 shedding (in words) [4]: abrogate

CCCCCCCCCCCCOS(=O)(=O)[O-].[Na+] [SDS]
Activation of Npr599 ([3]; 3.5 μM): approximately 2.4 fold

[Zn+2] [Zn2+]
Effect on InhA caseinolytic activity (in words) [1]: inhibit | Effect on Npr599 caseinolytic activity (in words) [3]: inhibit

OCCS [b-mercaptoethanol, β-mercaptoethanol]
Remaining protease activity (%) InhA [1]: 85.8% and 105.8% and 113.4% | Effect on InhA caseinolytic activity (in words) ([1]; 1 mM): no substantial inhibiting activity | Remaining protease activity (%) Npr599 [3]: 85.4% and 133.4% and 120.7% | Effect on Npr599 caseinolytic activity (in words) ([3]; 1 mM): no substantial inhibiting activity

Cc1ccc(C(=O)Nc2ccc(S(=O)(=O)O)c3cc(S(=O)(=O)O)cc(S(=O)(=O)O)c23)cc1NC(=O)c1cccc(NC(=O)Nc2cccc(C(=O)Nc3cc(C(=O)Nc4ccc(S(=O)(=O)O)c5cc(S(=O)(=O)O)cc(S(=O)(=O)O)c45)ccc3C)c2)c1 [suramin]
Effect on AnlO-induced syndecan-1 shedding (in words) [2]: reduce | Effect on LeTx-induced syndecan-1 shedding (in words) [2]: reduce | Effect on syndecan-1 shedding induced by proteases (in words) [4]: effectively inhibits | Effect on syndecan shedding (in words) ([4]; 20 μM): stimulates
